What follows are compounds tested against T1, human GPR40 (Homo sapiens, UniProt O14842) (assay: Inositol Phosphate Turnover (IP1) Assay 3). Settings: HEK cells stably expressing human GPR40.
T1 construct: expressed in transfected cells; host or cells: HEK cells stably expressing the aequorin reporter
Format: cell-based
Description: Human and mouse GPR40 stable cell-lines were generated in CHO cells stably expressing NFAT BLA (Beta-lactamase). A human GPR40 stable cell-line was generated in HEK cells stably expressing the aequorin expressing reporter. The expression plasmids were transfected using lipofectamine (Life Technologies) following manufacturer's instructions. Stable cell-lines were generated following drug selection.
Inositol Phosphate Turnover (IP1) Assay 3:
The assay was performed in 384-well format. HEK cells stably expressing human GPR40 were plated at 7500 cells per well in growth medium (DMEM/10% fetal calf serum). Cell plates were then incubated 16 hours at 37 degrees in a 5% CO2 incubator.
Measurement of Inositol Phosphate Turnover (IP) was performed using the CisBio IP-One kit (Part number 62IPAPEB). After the 16 hour incubation, the growth media was removed by centrifugation using the BlueWasher (AusWasher GUI Ver. v1.0.1.8) Protocol #21—“Light Dry” and 10 ul of stimulation buffer (prepared as described in the kit) was added to each well. In a separate plate, compounds were diluted in DMSO (200-fold over the final concentration in the assay well) and 50 nl was acoustically transferred to the appropriate well in the assay cell plate. The plates were then incubated for 60 minutes at 37 degrees in a 5% CO2 incubator. 10 ul of detection buffer (also prepared as described in the IP-One kit) was added to each well and the plates were incubated at rt for 60 minutes in the dark. The plates were then read in a Perkin Elmer EnVision or equivalent reader able to measure FRET. Fluorescent ratio of emission at 665 and 620 nm was then converted to IP1 concentration by back calculating from an IP1 standard curve prepared at the time of the assay. Data is normalized to % activity using a reference compound and EC50s determined using a standard 4-parameter fit.

T1 sequence (O14842 whole entry): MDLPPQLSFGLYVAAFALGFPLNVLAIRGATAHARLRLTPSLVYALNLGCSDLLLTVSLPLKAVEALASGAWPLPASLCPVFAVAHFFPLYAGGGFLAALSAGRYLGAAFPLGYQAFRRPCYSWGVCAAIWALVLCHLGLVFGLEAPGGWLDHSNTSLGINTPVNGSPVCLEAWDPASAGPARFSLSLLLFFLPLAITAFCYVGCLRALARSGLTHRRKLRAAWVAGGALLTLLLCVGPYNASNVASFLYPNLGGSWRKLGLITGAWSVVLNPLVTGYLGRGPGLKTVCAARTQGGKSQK

| SMILES | EC50 [nM] |
| --- | --- |
| COc1cc(-c2ccc(C3CCc4ccc([C@H](C5CC5)[C@H](C)C(=O)O)cc4O3)c(CN3CCCC3(C)C)c2)ccn1 (mixture of isomers) [Example 111, (2S,3R)-3-cyclopropyl-3-(2-(2-((2,2-dimethylpyrrolidin-1-yl)methyl)-4-(2-methoxypyridin-4-yl)phenyl)chroman-7-yl)-2-methylpropanoic acid] | 0.7 |
| CCN(Cc1cc(-c2ccnc(OC)c2)ccc1C1CCc2ccc([C@H](C3CC3)[C@H](C)C(=O)O)cc2O1)C(C)C (mixture of isomers) [Example 113] | 0.7 |
| COc1cc(-c2ccc(C3CCc4ccc([C@H](C5CC5)[C@H](C)C(=O)O)cc4O3)c(CN(C)C(C)(C)C)c2)ccn1 (mixture of isomers) [Example 114] | 5 |
| COc1cc(-c2ccc(C3CCc4ccc([C@H](C5CC5)[C@H](C)C(=O)O)cc4O3)c(CN(C(C)C)C(C)C)c2)ccn1 (mixture of isomers) [Example 115] | 0.1 |
| COc1cc(-c2ccc(C3CCc4ccc([C@H](C5CC5)[C@H](C)C(=O)O)cc4O3)c(CN3CCCCC3(C)C)c2)ccn1 (mixture of isomers) [Example 117] | 0.6 |
| COc1cc(-c2ccc(C3CCc4ccc([C@H](C5CC5)[C@H](C)C(=O)O)cc4O3)c(CN3CCCC[C@H]3C)c2)ccn1 (mixture of isomers) [Example 120] | 0.7 |
| CCN(Cc1cc(-c2cc(OC)ncc2F)ccc1C1CCc2ccc([C@H](C3CC3)[C@H](C)C(=O)O)cc2O1)C(C)C (mixture of isomers) [Example 124] | 0.3 |
| COc1cc(-c2ccc(C3CCc4ccc([C@H](C5CC5)[C@H](C)C(=O)O)cc4O3)c(CN(C)C(C)(C)C)c2)c(F)cn1 (mixture of isomers) [Example 125] | 2.2 |
| COc1cc(-c2ccc(C3CCc4ccc([C@H](C5CC5)[C@H](C)C(=O)O)cc4O3)c(CN(C(C)C)C(C)C)c2)c(F)cn1 (mixture of isomers) [Example 126] | 0.1 |
| COc1cc(-c2ccc(C3CCc4ccc([C@H](C5CC5)[C@H](C)C(=O)O)cc4O3)c(CN3CCCCC3(C)C)c2)c(F)cn1 (mixture of isomers) [Example 128] | 0.16 |
| CCOc1cc(-c2ccc(C3CCc4ccc([C@H](C5CC5)[C@H](C)C(=O)O)cc4O3)c(CN(C)C(C)(C)C)c2)c(F)cn1 (mixture of isomers) [Example 132] | 4.8 |
| COCC(c1cc([C@H]2CCc3ccc([C@H](C4CC4)[C@H](C)C(=O)O)cc3O2)ccc1-c1ccnc(OC)c1)N1CCCC1 (mixture of isomers) [Example 179, (2S, 3R)-3-cyclopropyl-3-((2R)-2-(3-(2-methoxy-1-(pyrrolidin-1-yl)ethyl)-4-(2-methoxypyridin-4-yl)phenyl)chroman-7-yl)-2-methylpropanoic acid] | 17 |
| CCN(CC)Cc1cc(C2CCc3ccc([C@H](C4CC4)[C@H](C)C(=O)O)cc3O2)ccc1-c1cc(OC)ncc1C#N (mixture of isomers) [Example 197] | 2.9 |
| CCN(CC)Cc1cc(C2CCc3ccc([C@H](C4CC4)[C@H](C)C(=O)O)cc3O2)ncc1-c1cc(OC)ncc1F (single isomer, unassigned) [Example 86] | 1.4 |
| CCN(CC)Cc1cc(C2CCc3ccc([C@H](C4CC4)[C@H](C)C(=O)O)cc3O2)ncc1-c1cc(OC)ncc1F (single isomer, unassigned) [Example 87] | 6.6 |
| CCN(CC)Cc1nc(C2CCc3ccc([C@H](C4CC4)[C@H](C)C(=O)O)cc3O2)ccc1-c1cc(OC)ncc1F (single isomer, unassigned) [Example 88] | 6.7 |

| SMILES | EC50 [nM] |
| --- | --- |
| CCN(CC)Cc1nc(C2CCc3ccc([C@H](C4CC4)[C@H](C)C(=O)O)cc3O2)ccc1-c1cc(OC)ncc1F (single isomer, unassigned) [Example 89] | 0.9 |
| COc1cc(-c2ccc(C3CCc4ccc([C@H](C5CCC5)[C@H](C)C(=O)O)cc4O3)cc2CN2[C@H](C)CC[C@H]2C)c(F)cn1 (single isomer, unassigned) [Example 96] | 0.06 |
| COc1cc(-c2ccc(C3CCc4ccc([C@H](C5CCC5)[C@H](C)C(=O)O)cc4O3)cc2CN2[C@H](C)CC[C@H]2C)c(F)cn1 (single isomer, unassigned) [Example 97] | 0.19 |
| CCN(CC)Cc1cc(C2CCc3ccc([C@H](C4CCC4)[C@H](C)C(=O)O)cc3O2)ccc1-c1cc(OC)ncc1F (single isomer, unassigned) [Example 98] | 0.09 |
| CCN(CC)Cc1cc(C2CCc3ccc([C@H](C4CCC4)[C@H](C)C(=O)O)cc3O2)ccc1-c1cc(OC)ncc1F (single isomer, unassigned) [Example 99] | 0.18 |
| COc1cc(-c2ccc(C3CCc4ccc([C@H](C5CCC5)[C@H](C)C(=O)O)cc4O3)cc2CN2CCCC2C)c(F)cn1 (single isomer, unassigned) [Example 100] | 0.14 |
| COc1cc(-c2ccc(C3CCc4ccc([C@H](C5CCC5)[C@H](C)C(=O)O)cc4O3)cc2CN2CCCC2C)c(F)cn1 (single isomer, unassigned) [Example 101] | 0.25 |
| COc1cc(-c2ccc(C3CCc4ccc([C@H](C5CCC5)[C@H](C)C(=O)O)cc4O3)cc2CN2CCCCC2)c(F)cn1 (single isomer, unassigned) [Example 104] | 1.1 |
| COc1cc(-c2ccc(C3CCc4ccc([C@H](C5CCC5)[C@H](C)C(=O)O)cc4O3)cc2CN2CCCCC2)c(F)cn1 (single isomer, unassigned) [Example 105] | 0.1 |
| COc1cc(-c2ccc(C3CCc4ccc([C@H](C5CCC5)[C@H](C)C(=O)O)cc4O3)cc2CN2CCCCC23CC3)c(F)cn1 (single isomer, unassigned) [Example 106] | 0.2 |
| COc1cc(-c2ccc(C3CCc4ccc([C@H](C5CCC5)[C@H](C)C(=O)O)cc4O3)cc2CN2CCCCC23CC3)c(F)cn1 (single isomer, unassigned) [Example 107] | 0.1 |
| COc1cc(-c2ccc(C3CCc4ccc([C@H](C5CCC5)[C@H](C)C(=O)O)cc4O3)cc2CN2CCCC2(C)C)c(F)cn1 (single isomer, unassigned) [Example 108] | 0.1 |
| COc1cc(-c2ccc(C3CCc4ccc([C@H](C5CCC5)[C@H](C)C(=O)O)cc4O3)cc2CN2CCCC2(C)C)c(F)cn1 (single isomer, unassigned) [Example 109] | 0.1 |
| COc1cc(-c2ccc(C3CCc4ccc([C@H](C5CC5)[C@H](C)C(=O)O)cc4O3)c(CN3CCCC3(C)C)c2)ccn1 (single isomer, unassigned) [Example 111a] | 3.2 |
| COc1cc(-c2ccc(C3CCc4ccc([C@H](C5CC5)[C@H](C)C(=O)O)cc4O3)c(CN3CCCC3(C)C)c2)ccn1 (single isomer, unassigned) [Example 111b] | 0.4 |

Other lines, results leading:

| EC50 [nM] | SMILES |
| --- | --- |
| 2.3 | COc1cc(-c2ccc(C3CCc4ccc([C@H](C5CC5)[C@H](C)C(=O)O)cc4O3)c(CN3CCCC3)c2)ccn1 (single isomer, unassigned) [Example 112a] |
| 273 | COc1cc(-c2ccc(C3CCc4ccc([C@H](C5CC5)[C@H](C)C(=O)O)cc4O3)c(CN3CCCC3)c2)ccn1 (single isomer, unassigned) [Example 112b] |
| 0.4 | CCN(Cc1cc(-c2ccnc(OC)c2)ccc1C1CCc2ccc([C@H](C3CC3)[C@H](C)C(=O)O)cc2O1)C(C)C (single isomer, unassigned) [Example 113a] |
| 14 | CCN(Cc1cc(-c2ccnc(OC)c2)ccc1C1CCc2ccc([C@H](C3CC3)[C@H](C)C(=O)O)cc2O1)C(C)C (single isomer, unassigned) [Example 113b] |
| 1.5 | COc1cc(-c2ccc(C3CCc4ccc([C@H](C5CC5)[C@H](C)C(=O)O)cc4O3)c(CN(C)C(C)(C)C)c2)ccn1 (single isomer, unassigned) [Example 114a] |
| 250 | COc1cc(-c2ccc(C3CCc4ccc([C@H](C5CC5)[C@H](C)C(=O)O)cc4O3)c(CN(C)C(C)(C)C)c2)ccn1 (single isomer, unassigned) [Example 114b] |
| 0.1 | COc1cc(-c2ccc(C3CCc4ccc([C@H](C5CC5)[C@H](C)C(=O)O)cc4O3)c(CN(C(C)C)C(C)C)c2)ccn1 (single isomer, unassigned) [Example 115a] |
| 5.3 | COc1cc(-c2ccc(C3CCc4ccc([C@H](C5CC5)[C@H](C)C(=O)O)cc4O3)c(CN(C(C)C)C(C)C)c2)ccn1 (single isomer, unassigned) [Example 115b] |
| 1.7 | COc1cc(-c2ccc(C3CCc4ccc([C@H](C5CC5)[C@H](C)C(=O)O)cc4O3)c(CN3[C@H](C)CC[C@H]3C)c2)ccn1 (single isomer, unassigned) [Example 116a] |
| 1 | COc1cc(-c2ccc(C3CCc4ccc([C@H](C5CC5)[C@H](C)C(=O)O)cc4O3)c(CN3[C@H](C)CC[C@H]3C)c2)ccn1 (single isomer, unassigned) [Example 116b] |
| 1000 | COc1cc(-c2ccc(C3CCc4ccc([C@H](C5CC5)[C@H](C)C(=O)O)cc4O3)c(CN3[C@H](C)CC[C@H]3C)c2)ccn1 (single isomer, unassigned) [Example 116c] |

From US10968193B2, “Antidiabetic bicyclic compounds” (Merck Sharp & Dohme Corp., priority 2014, dated 2021)
